Test results: ChEMBL document CHEMBL5046324, “Small-Molecule Inhibitor of the Oncogenic KRASG12C Mutant for the Treatment of Currently Incurable Cancer” (ACS Med Chem Lett, 2022)

Legend:
GTPase KRas [1] = target: T1, GTPase KRas (Homo sapiens, UniProt P01116, G12C); test: Inhibition of KRAS G12C mutant (2 to 188 residues) (unknown origin) expressed in Escherichia coli assessed as inhibition of SOS mediated nucleotide exchange at 21 degreeC for 15 mins by HTRF assay
GTPase KRas [2] = target: T1, GTPase KRas; test: Inhibition of KRAS G12C mutant (2 to 188 residues) (unknown origin) expressed in Escherichia coli assessed as inhibition of SOS mediated nucleotide exchange at 4 degreeC for 18 hrs by HTRF assay
GTPase KRas [3] = target: T1, GTPase KRas; test: Inhibition of KRAS G12C mutant in human HCC1171 cells assessed as effect on cell alkylation measured after 18 hrs by western blot analysis; assay type: cell-based
GTPase KRas [4] = target: T1, GTPase KRas; test: Inhibition of KRAS G12C mutant (2 to 188 residues) (unknown origin) expressed in Escherichia coli assessed as inhibition of SOS mediated nucleotide exchange measured after 18 hrs by HTRF assay

SMILES	IC50 (GTPase KRas [1]) [nM]	IC50 (GTPase KRas [2]) [nM]	EC50 (GTPase KRas [3]) [nM]	IC50 (GTPase KRas [4]) [nM]
C=CC(=O)N1CCN(c2nc(OC[C@@H]3CCCN3C)nc3c2CC[C@@]2(CCc4ccccc4C2)C3)C[C@@H]1CC#N	291	51		
C=CC(=O)N1CCN(c2nc(OCc3cn(C)cn3)nc3c2CC[C@H](c2cc(O)cc4ccccc24)C3)[C@@H](C)C1			3000	470
C=CC(=O)N1CCN(c2nc(OC[C@@H]3CCCN3C)nc3c2CCC2(CCc4ccccc4C2)C3)C[C@@H]1CC#N (stereo partly specified)	142	46		
C=CC(=O)N1CCN(c2nc(OC[C@@H]3CCCN3C)nc3c2CC[C@]2(CCc4ccccc4C2)C3)C[C@@H]1CC#N	131	60		
C=CC(=O)N1CCN(c2nc(OC[C@@H]3CCCN3C)nc3c2C[C@@H](C)[C@H](c2cc(O)cc4ccccc24)C3)[C@@H](C)C1			< 6.1	
C=CC(=O)N1CCN(c2nc(OC[C@@H]3C[C@H](F)CN3C)nc3c2C[C@@H](C)[C@H](c2cc(O)cc4ccccc24)C3)[C@@H](C)C1			40	11
